One series deals with Caco-2 cells. In words: Glucose uptake assay (2-DG6P) in Caco-2 cells. The format is cell-based, human. Particulars: 1 mM, 24 h. The protocol: Glucose uptake was evaluated by using the glucose uptake colorimetric assay kit (Sigma-Aldrich) according to the manufacturer's instructions. Briefly, Caco-2 cells were seeded into a 96-well plate at a density of 30,000 cells per well. Cells were serum deprived for 16 hours prior to stimulation in order to synchronize the cells. Cells were treated with GED (1 mM) or pioglitazone (1 μM) for 24 h. Cells were then washed 3 times with PBS and were glucose-starved by incubating with 100 μl of KRPH buffer (Krebs-Ringer-Phosphate-HEPES (KRPH) Buffer—20 mM HEPES, 5 mM KH2PO4, 1 mM MgSO4, 1 mM CaCl2, 136 mM NaCl, and 4.7 mM KCl, pH 7.4) containing 2% BSA for 40 minutes. 10 μl of 2-deoxyglucose (2-DG; 10 mM) was then added and incubation was continued for 20 minutes. 2-DG is taken up by the cells and phosphorylated by hexokinase to 2-DG6P, which cannot be further metabolized and accumulates in cells. Following incubation, cells were washed 3 times with PBS and lysed with 80 μl of the extraction buffer provided. The amount of 2-DG6P (which is directly proportional to glucose uptake by the cells) was determined by a colorimetric detection assay according to the manufacturer's protocol.

Series [1] concerns weaned rats fed with a lactose-enriched diet. Kind of series: Symptoms associated with lactose intolerance in weaned rats fed a lactose-enriched diet. The format is in vivo. Particulars: rats on lactose-enriched diet. The method, then:
Animal experiments were performed in the accredited Pasteur Institute animal care facility (Institut Pasteur de Lille, France; n° B59-35009) according to governmental guidelines (n° 2010/63/UE; Décret 2013-118) and animal ethics committee approval. Specific pathogen-free male C57BL/6 mice and Sprague-Dawley rats were obtained from Janvier Labs (France). Mice and rats were housed 5 animals/cage and 3 animals/cage, respectively, in a specific pathogen-free facility, in an air-conditioned room with controlled temperature (22±1° C.), humidity (65-70%), and 12 h light/12 h dark cycles. Animals were fed with standard laboratory chow (except when indicated) and were provided with autoclaved tap water ad libitum. Animals were acclimatized for at least 1 week before entering the study.
In addition, the effect of GED on the symptoms associated with lactose intolerance was evaluated in weaned rats fed with a lactose-enriched diet provided by Ssniff Spezialdiäten GmbH (Soest, Germany). Animals were monitored daily, weighed, and stool consistencies were evaluated.
SCFA were extracted and measured as described in […], which is incorporated herein by reference.

The test system of the next series is LCT. Kind of series: LCT mRNA expression and activity in proximal small intestine of rats after oral GED. The following applies: weaned Sprague-Dawley rats, 30 mg/kg daily by gavage for 7 days. The format is in vivo. The protocol:
Expression of genes of interest was quantified by quantitative PCR (qPCR) of corresponding reverse transcribed mRNA. One μg of total RNA was reverse-transcribed into cDNA using the High Capacity cDNA Archive kit (Applied Biosystems). Amplification was performed using an ABI PRISM 7000 sequence detection system (Applied Biosystem) using Power SYBR® Green PCR master Mix (Applied Biosystem). Primer pairs for each human transcript were chosen with qPrimer depot software (at primerdepot.nci.nih.gov.). Quantification of qPCR signals was performed using ΔCt relative quantification method using GAPDH as a reference gene for human and rat samples and β-Actin for mouse samples. Values were represented in terms of relative quantity of mRNA level variation or fold increase compared to control conditions.
Lactase activity was evaluated by using a glucose oxidase method (Glucose Assay Kit, Sigma). […] For Caco-2 cells, lactase activity was determined directly from the cell monolayer. […] The reaction was stopped with 100 μl of H2SO4 and read by spectrophotometry at 450 nm. When lactase activity was determined from intestinal sample, tissue samples were first dounce-homogenized in 0.9% NaCl on crushed ice. […] For each experiment, the background attributed to the remaining glucose in the samples was measured by incubating cells or cell extracts in lactose-free buffer. […]

As to `COC(Cc1ccc(N)cc1)C(=O)O` (centres unmarked) [GED, 3-(4′-aminophenyl)2-methoxypropionic acid], in the series on Caco-2 cells, the “glucose uptake of Caco-2 cells” value is reported as “did not significantly alter”. Moreover, the “concentration of short-chain fatty acids (SCFA) in caecal contents” value in series [1] (day 4) is “significant decrease”. The “caecum volume compared to untreated rats” value in series [1] (sacrificed at day 4, data not shown) is recorded as “significant decrease”. In the series on LCT, the “LCT activity in the proximal part of the small intestine” value was “significantly increased” and the “LCT expression in the proximal part of the small intestine” value was “significantly increased”.

Values taken from US20190046490A1, “METHODS OF TREATING LACTOSE INTOLERANCE” (Nogra Pharma Limited, priority 2016, published 2019).
